Laboratory results published in ChEMBL document CHEMBL3046726, “Cytotoxic and genotoxic potentials of newly synthesized antiviral aminopyrazoloquinoline derivatives” (Med Chem Res, 2008).

What was measured:
MCF-12A [1] = assay: Genotoxicity in Homo sapiens (human) MCF12A cells assessed as reduction of BP-DNA adduct formation at 100 uM after 24 hr by 32P-postlabeling technique; type: toxicity, cell-based; parameters: scale not given: the % may be the effect or the level left
MDA-MB-231 [2] = assay: Cytotoxicity against Homo sapiens (human) MDA-MB-231 cells at 10 uM after 72 hr; type: cell-based; settings: mda-mb-231, 72 h
MCF-10A [3] = assay: Cytotoxicity against Homo sapiens (human) MCF10A cells at 100 uM after 72 hr; type: cell-based
MCF-12A [4] = assay: Cytotoxicity against Homo sapiens (human) MCF12A cells at 50 uM after 72 hr; type: cell-based
MCF7 [5] = assay: Cytotoxicity against Homo sapiens (human) MCF7 cells at 50 uM after 72 hr; type: cell-based; settings: mcf7, 72 h
MDA-MB-231 [6] = assay: Genotoxicity in Homo sapiens (human) MDA-MB-231 cells assessed as reduction of BP-DNA adduct formation at 100 uM after 24 hr by 32P-postlabeling technique; type: toxicity, cell-based; parameters: scale not given: the % may be the effect or the level left; settings: mda-mb-231, 24 h
MCF7 [7] = assay: Cytotoxicity against Homo sapiens (human) MCF7 cells at 100 uM after 72 hr; type: cell-based; settings: mcf7, 72 h
MCF-10A [8] = assay: Induction of apoptosis in Homo sapiens (human) MCF10A cells at 50 uM after 72 hr by flow cytometry; type: cell-based
MCF-12A [9] = assay: Cell cycle arrest in Homo sapiens (human) MCF12A cells assessed as accumulation at G2/M phase at 50 uM after 72 hr by flow cytometry; type: ADME, cell-based
MCF-12A [10] = assay: Cytotoxicity against Homo sapiens (human) MCF12A cells at 100 uM after 72 hr; type: cell-based
MCF-12A [11] = assay: Cell cycle arrest in Homo sapiens (human) MCF12A cells at 10 uM after 72 hr by flow cytometry; type: ADME, cell-based
MCF-12A [12] = assay: Cytotoxicity against Homo sapiens (human) MCF12A cells at 10 uM after 72 hr; type: cell-based
MDA-MB-231 [13] = assay: Cell cycle arrest in Homo sapiens (human) MDA-MB-231 cells at 10 uM after 72 hr by flow cytometry; type: ADME, cell-based; settings: mda-mb-231, 72 h
MCF7 [14] = assay: Induction of BP-DNA adduct formation in Homo sapiens (human) MCF7 cells at 100 uM after 24 hr by 32P-postlabeling technique relative to control; type: cell-based; settings: mcf7, 24 h
MCF-10A [15] = assay: Cell cycle arrest in Homo sapiens (human) MCF10A cells assessed as accumulation at G2/M phase at 50 uM after 72 hr by flow cytometry; type: ADME, cell-based
MCF7 [16] = assay: Induction of apoptosis in Homo sapiens (human) MCF7 cells at 10 uM after 72 hr by flow cytometry; type: cell-based; settings: mcf7, 72 h
MCF7 [17] = assay: Induction of apoptosis in Homo sapiens (human) MCF7 cells at 100 uM after 72 hr by flow cytometry; type: cell-based; settings: mcf7, 72 h
MCF-12A [18] = assay: Induction of apoptosis in Homo sapiens (human) MCF12A cells at 10 uM after 72 hr by flow cytometry; type: cell-based
MCF7 [19] = assay: Cytotoxicity against Homo sapiens (human) MCF7 cells at 10 uM after 72 hr; type: cell-based; settings: mcf7, 72 h
MCF7 [20] = assay: Induction of apoptosis in Homo sapiens (human) MCF7 cells at 50 uM after 72 hr by flow cytometry; type: cell-based; settings: mcf7, 72 h
MCF-10A [21] = assay: Cytotoxicity against Homo sapiens (human) MCF10A cells at 50 uM after 72 hr; type: cell-based
MDA-MB-231 [22] = assay: Induction of apoptosis in Homo sapiens (human) MDA-MB-231 cells at 100 uM after 72 hr by flow cytometry; type: cell-based; settings: mda-mb-231, 72 h
MDA-MB-231 [23] = assay: Cell cycle arrest in Homo sapiens (human) MDA-MB-231 cells assessed as accumulation at G2/M phase at 50 uM after 72 hr by flow cytometry; type: ADME, cell-based; settings: mda-mb-231, 72 h
MCF7 [24] = assay: Cell cycle arrest in Homo sapiens (human) MCF7 cells at 10 uM after 72 hr by flow cytometry; type: ADME, cell-based; settings: mcf7, 72 h
MCF-12A [25] = assay: Induction of apoptosis in Homo sapiens (human) MCF12A cells at 50 uM after 72 hr by flow cytometry; type: cell-based
MDA-MB-231 [26] = assay: Cytotoxicity against Homo sapiens (human) MDA-MB-231 cells at 50 uM after 72 hr; type: cell-based; settings: mda-mb-231, 72 h
MDA-MB-231 [27] = assay: Induction of apoptosis in Homo sapiens (human) MDA-MB-231 cells at 10 uM after 72 hr by flow cytometry; type: cell-based; settings: mda-mb-231, 72 h
MCF-10A [28] = assay: Induction of apoptosis in Homo sapiens (human) MCF10A cells at 100 uM after 72 hr by flow cytometry; type: cell-based
MCF-12A [29] = assay: Cell cycle arrest in Homo sapiens (human) MCF12A cells assessed as accumulation at G2/M phase at 100 uM after 72 hr by flow cytometry; type: ADME, cell-based
MCF-10A [30] = assay: Cell cycle arrest in Homo sapiens (human) MCF10A cells assessed as accumulation at G2/M phase at 100 uM after 72 hr by flow cytometry; type: ADME, cell-based
MCF7 [31] = assay: Cell cycle arrest in Homo sapiens (human) MCF7 cells assessed as accumulation at G2/M phase at 100 uM after 72 hr by flow cytometry; type: ADME, cell-based; settings: mcf7, 72 h
MCF-12A [32] = assay: Induction of apoptosis in Homo sapiens (human) MCF12A cells at 100 uM after 72 hr by flow cytometry; type: cell-based
MDA-MB-231 [33] = assay: Cell cycle arrest in Homo sapiens (human) MDA-MB-231 cells assessed as accumulation at G2/M phase at 100 uM after 72 hr by flow cytometry; type: ADME, cell-based; settings: mda-mb-231, 72 h
MDA-MB-231 [34] = assay: Induction of apoptosis in Homo sapiens (human) MDA-MB-231 cells at 50 uM after 72 hr by flow cytometry; type: cell-based; settings: mda-mb-231, 72 h
MDA-MB-231 [35] = assay: Cytotoxicity against Homo sapiens (human) MDA-MB-231 cells at 100 uM after 72 hr; type: cell-based; settings: mda-mb-231, 72 h
MCF7 [36] = assay: Cell cycle arrest in Homo sapiens (human) MCF7 cells assessed as accumulation at G2/M phase at 50 uM after 72 hr by flow cytometry; type: ADME, cell-based; settings: mcf7, 72 h

SMILES | Activity (MDA-MB-231 [2]) | Activity (MCF-10A [8]) | Activity (MCF-12A [9]) | Activity (MCF-12A [11]) | Activity (MCF-12A [12]) | Activity (MDA-MB-231 [13]) | Activity (MCF-10A [15]) | Activity (MCF7 [16]) | Activity (MCF7 [17]) | Activity (MCF-12A [18]) | Activity (MCF7 [19]) | Activity (MCF7 [20]) | Activity (MDA-MB-231 [22]) | Activity (MDA-MB-231 [23]) | Activity (MCF7 [24]) | Activity (MCF-12A [25]) | Activity (MDA-MB-231 [27]) | Activity (MCF-10A [28]) | Activity (MCF-12A [29]) | Activity (MCF-10A [30]) | also measured
COc1ccc2cc3c(N)n[nH]c3nc2c1 | Non-toxic | 5% | 20% | Non-toxic | Non-toxic | Non-toxic | 20% | Non-toxic | 15% | Non-toxic | Non-toxic | 10% | 80% | 35% | Non-toxic | 30% | Non-toxic |  |  |  | Activity (MCF-12A [1]): 40%; Activity (MCF-10A [3]): 90%; Activity (MCF-12A [4]): 20%; Activity (MCF7 [5]): 30%; Activity (MDA-MB-231 [6]): > 60%; Activity (MCF7 [7]): 50%; Activity (MCF-12A [10]): 90%; fold change (FC) (MCF7 [14]): 2; Activity (MCF-10A [21]): 20%; Activity (MDA-MB-231 [26]): 30%
Nc1[nH]nc2nc3ccccc3cc12 | Non-toxic |  |  | Non-toxic | Non-toxic | Non-toxic |  | Non-toxic | Non-toxic | Non-toxic | Non-toxic |  | Non-toxic |  | Non-toxic |  | Non-toxic | Toxic | Non-toxic | Non-toxic | Activity (MCF7 [31]): Non-toxic; Activity (MCF-12A [32]): Toxic; Activity (MDA-MB-231 [33]): Non-toxic
Nc1nc2c(ncn2COCCO)c(=O)[nH]1 [ACYCLOVIR] | Non-toxic | Non-toxic | Non-toxic | Non-toxic | Non-toxic | Non-toxic | Non-toxic | Non-toxic | Non-toxic | Non-toxic | Non-toxic | Non-toxic | Non-toxic | Non-toxic | Non-toxic | Non-toxic | Non-toxic | Non-toxic | Non-toxic | Non-toxic | Activity (MCF-10A [3]): Non-toxic; Activity (MCF-12A [4]): Non-toxic; Activity (MCF7 [5]): Non-toxic; Activity (MCF7 [7]): Non-toxic; Activity (MCF-12A [10]): Non-toxic; Activity (MCF7 [31]): Non-toxic; Activity (MCF-12A [32]): Non-toxic; Activity (MCF-10A [21]): Non-toxic; Activity (MDA-MB-231 [34]): Non-toxic; Activity (MDA-MB-231 [33]): Non-toxic; Activity (MDA-MB-231 [35]): Non-toxic; Activity (MCF7 [36]): Non-toxic; Activity (MDA-MB-231 [26]): Non-toxic
Cc1ccc2cc3c(N)[nH]nc3nc2c1 | Non-toxic | Toxic | Non-toxic | Non-toxic | Non-toxic | Non-toxic | Non-toxic | Non-toxic | Non-toxic | Non-toxic | Non-toxic | Non-toxic | Non-toxic | Non-toxic | Non-toxic | Toxic | Non-toxic | Toxic | Non-toxic | Non-toxic | fold change (FC) (MCF7 [14]): 3.5; Activity (MCF7 [31]): Non-toxic; Activity (MCF-12A [32]): Toxic; Activity (MDA-MB-231 [34]): Non-toxic; Activity (MDA-MB-231 [33]): Non-toxic; Activity (MCF7 [36]): Non-toxic
